Measured values: ChEMBL document CHEMBL1201862, “PubChem BioAssay data set” (2004)
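Test compounds were applied to cells in 96-well plates for 48 hours at 5 doses. At the GI50, growth is halved.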 The source made the active and inactive calls. No stated cut-off is given here; in the data, active = GI50 up to about 1.1 µM and inactive = higher.

How the values were obtained:
Assay in all cases: NCI anticancer screen, dose series, 48 h
[1] = system: 786-0
[2] = system: A498
[3] = system: A549
[4] = system: ACHN
[5] = system: BT-549
[6] = system: CAKI-1
[7] = system: CCRF-CEM
[8] = system: COLO 205
[9] = system: DU-145
[10] = system: EKVX
[11] = system: HCC 2998
[12] = system: HCT-116
[13] = system: HCT-15
[14] = system: HL-60
[15] = system: HOP-62
[16] = system: HOP-92
[17] = system: HT-29
[18] = system: Hs-578T
[19] = system: IGROV-1
[20] = system: K562
[21] = system: KM12
[22] = system: LOX IMVI
[23] = system: M14
[24] = system: MCF7
[25] = system: MDA-MB-231
[26] = system: MDA-MB-435
[27] = system: MOLT-4
[28] = system: Malme-3M
[29] = system: NCI-H226
[30] = system: NCI-H23
[31] = system: NCI-H460
[32] = system: NCI-H522
[33] = system: NCI/ADR-RES
[34] = system: OVCAR-3
[35] = system: OVCAR-4
[36] = system: OVCAR-5
[37] = system: OVCAR-8
[38] = system: PC-3
[39] = system: RPMI-8226
[40] = system: RXF 393
[41] = system: SF-268
[42] = system: SF-295
[43] = system: SF-539
[44] = system: SK-MEL-28
[45] = system: SK-MEL-2
[46] = system: SK-MEL-5
[47] = system: SK-OV-3
[48] = system: SN12C
[49] = system: SNB-19
[50] = system: SNB-75
[51] = system: SR
[52] = system: SW-620
[53] = system: T47D
[54] = system: TK-10
[55] = system: U-251
[56] = system: UACC-257
[57] = system: UACC-62
[58] = system: UO-31
[59] = system: MDA-N

For `C=CCN1C(=O)/C(=C/c2ccccc2)NC1=S`, the GI50 [1] was > 100 µM (inactive), the GI50 [2] was 38.3 µM (inactive) and the GI50 [3] was 88.9 µM (inactive). For the same compound, the GI50 [4] was > 100 µM (inactive), the GI50 [5] was > 100 µM (inactive) and the GI50 [6] was > 100 µM (inactive). For the same compound, the GI50 [7] was > 100 µM (inactive), the GI50 [8] was > 100 µM (inactive) and the GI50 [9] was > 100 µM (inactive). The GI50 [10] was 91 µM (inactive), the GI50 [11] was > 100 µM (inactive) and the GI50 [12] was > 100 µM (inactive). The GI50 [13] was greater than 100 µM, the GI50 [14] was 43.5 µM (inactive) and the GI50 [15] was > 100 µM (inactive). For the same compound, the GI50 [16] was > 100 µM (inactive), the GI50 [17] was > 100 µM (inactive) and the GI50 [18] was > 100 µM (inactive). For the same compound, the GI50 [19] was > 100 µM (inactive), the GI50 [20] was 84.5 µM (inactive) and the GI50 [21] was > 100 µM (inactive). For the same compound, the GI50 [22] was > 100 µM (inactive), the GI50 [23] was > 100 µM (inactive) and the GI50 [24] was > 100 µM (inactive). For the same compound, the GI50 [25] was > 100 µM (inactive), the GI50 [26] was > 100 µM (inactive) and the GI50 [27] was 61.7 µM (inactive). For the same compound, the GI50 [28] was > 100 µM (inactive), the GI50 [29] was 15.6 µM (inactive) and the GI50 [30] was > 100 µM (inactive). For the same compound, the GI50 [31] was > 100 µM (inactive), the GI50 [32] was 94.6 µM (inactive) and the GI50 [33] was > 100 µM (inactive). The GI50 [34] was > 100 µM (inactive), the GI50 [35] was > 100 µM (inactive) and the GI50 [36] was > 100 µM (inactive). For the same compound, the GI50 [37] was > 100 µM (inactive), the GI50 [38] was > 100 µM (inactive) and the GI50 [39] was 48.5 µM (inactive). The GI50 [40] was > 100 µM (inactive), the GI50 [41] was > 100 µM (inactive) and the GI50 [42] was > 100 µM (inactive). For the same compound, the GI50 [43] was > 100 µM (inactive), the GI50 [44] was > 100 µM (inactive) and the GI50 [45] was > 100 µM (inactive). For the same compound, the GI50 [46] was 65.5 µM (inactive), the GI50 [47] was > 100 µM (inactive) and the GI50 [48] was > 100 µM (inactive). The GI50 [49] was > 100 µM (inactive), the GI50 [50] was > 100 µM (inactive) and the GI50 [51] was > 100 µM (inactive). The GI50 [52] was > 100 µM (inactive), the GI50 [53] was > 100 µM (inactive) and the GI50 [54] was > 100 µM (inactive). The GI50 [55] was > 100 µM (inactive), the GI50 [56] was 74.1 µM (inactive) and the GI50 [57] was > 100 µM (inactive). For the same compound, the GI50 [58] was > 100 µM (inactive).
With `CCCCCCCC(=O)NC(C)(C)C(=O)NCC(=O)NC(CC(C)C)C(=O)NC(C)(C)C(=O)NCC(=O)NCC(=O)NC(CC(C)C)C(=O)NC(C)(C)C(=O)NCC(=O)NC(C(=O)NC(CO)CC(C)C)C(C)CC` (configuration not stated) the GI50 [1] was 4.61 µM (inactive), the GI50 [3] was 4.36 µM (inactive) and the GI50 [4] was 5 µM (inactive). For the same compound, the GI50 [5] was 3.59 µM (inactive), the GI50 [6] was 4.12 µM (inactive) and the GI50 [7] was 4.26 µM (inactive). The GI50 [8] was 3.81 µM (inactive), the GI50 [9] was 4.55 µM (inactive) and the GI50 [10] was 3.63 µM (inactive). For the same compound, the GI50 [11] was 4.29 µM (inactive), the GI50 [12] was 3.78 µM (inactive) and the GI50 [13] was 4.86 µM. For the same compound, the GI50 [15] was 4.28 µM (inactive), the GI50 [16] was 3.15 µM (inactive) and the GI50 [17] was 4.05 µM (inactive). The GI50 [18] was 4.42 µM (inactive), the GI50 [19] was 3.84 µM (inactive) and the GI50 [20] was 3.21 µM (inactive). For the same compound, the GI50 [21] was 1.41 µM (inactive), the GI50 [22] was 3.53 µM (inactive) and the GI50 [23] was 4.21 µM (inactive). The GI50 [25] was 4 µM (inactive), the GI50 [26] was 3.94 µM (inactive) and the GI50 [59] was 4 µM (inactive). For the same compound, the GI50 [27] was 3.73 µM (inactive), the GI50 [28] was 4.82 µM (inactive) and the GI50 [29] was 4.5 µM (inactive). For the same compound, the GI50 [30] was 3.93 µM (inactive), the GI50 [31] was 4.48 µM (inactive) and the GI50 [32] was 3.87 µM (inactive). The GI50 [33] was 4.83 µM (inactive), the GI50 [34] was 3.11 µM (inactive) and the GI50 [35] was 4.01 µM (inactive). The GI50 [36] was 3.66 µM (inactive), the GI50 [37] was 4.21 µM (inactive) and the GI50 [38] was 3.77 µM (inactive). The GI50 [39] was 0.935 µM (active), the GI50 [40] was 4.05 µM (inactive) and the GI50 [41] was 4.11 µM (inactive). The GI50 [42] was 4.26 µM (inactive), the GI50 [44] was 3.72 µM (inactive) and the GI50 [45] was 2.82 µM (inactive). For the same compound, the GI50 [46] was 3.85 µM (inactive), the GI50 [47] was 4.2 µM (inactive) and the GI50 [48] was 4.28 µM (inactive). For the same compound, the GI50 [49] was 3.57 µM (inactive), the GI50 [50] was 3.64 µM (inactive) and the GI50 [51] was 3.99 µM (inactive). The GI50 [52] was 4.02 µM (inactive), the GI50 [53] was 3.14 µM (inactive) and the GI50 [54] was 4.66 µM (inactive). The GI50 [55] was 2.39 µM (inactive), the GI50 [56] was 4.41 µM (inactive) and the GI50 [57] was 4.14 µM (inactive). The GI50 [58] was 4.3 µM (inactive).
For `COC(=O)C1(C(=O)OC)CC2=C(S(=O)(=O)c3ccccc3)C[C@H](S(=O)(=O)c3ccccc3)[C@H]2C1`, the GI50 [1] was > 100 µM (inactive), the GI50 [2] was > 100 µM (inactive) and the GI50 [3] was > 100 µM (inactive). The GI50 [4] was > 100 µM (inactive), the GI50 [5] was > 100 µM (inactive) and the GI50 [6] was > 100 µM (inactive). The GI50 [7] was > 100 µM (inactive), the GI50 [8] was 62.4 µM (inactive) and the GI50 [9] was > 100 µM (inactive). The GI50 [10] was > 100 µM (inactive), the GI50 [11] was 15.7 µM (inactive) and the GI50 [12] was 70.5 µM (inactive). The GI50 [13] was 35.3 µM, the GI50 [15] was 78.9 µM (inactive) and the GI50 [16] was 19.6 µM (inactive). For the same compound, the GI50 [17] was > 100 µM (inactive), the GI50 [18] was > 100 µM (inactive) and the GI50 [19] was 19.9 µM (inactive). For the same compound, the GI50 [20] was 23.7 µM (inactive), the GI50 [21] was 91.8 µM (inactive) and the GI50 [22] was > 100 µM (inactive). The GI50 [23] was > 100 µM (inactive), the GI50 [25] was 27.4 µM (inactive) and the GI50 [26] was 76.4 µM (inactive). For the same compound, the GI50 [59] was 39.4 µM (inactive), the GI50 [27] was 46.7 µM (inactive) and the GI50 [28] was 80.2 µM (inactive). For the same compound, the GI50 [29] was > 100 µM (inactive), the GI50 [30] was > 100 µM (inactive) and the GI50 [31] was 39.6 µM (inactive). The GI50 [32] was 33 µM (inactive), the GI50 [33] was > 100 µM (inactive) and the GI50 [34] was 29 µM (inactive). The GI50 [35] was > 100 µM (inactive), the GI50 [36] was > 100 µM (inactive) and the GI50 [37] was > 100 µM (inactive). The GI50 [38] was 41.9 µM (inactive), the GI50 [39] was 11.7 µM (inactive) and the GI50 [40] was 13.8 µM (inactive). The GI50 [41] was > 100 µM (inactive), the GI50 [42] was > 100 µM (inactive) and the GI50 [44] was > 100 µM (inactive). The GI50 [45] was 27.2 µM (inactive), the GI50 [46] was 82.8 µM (inactive) and the GI50 [47] was > 100 µM (inactive). For the same compound, the GI50 [48] was > 100 µM (inactive), the GI50 [49] was 71.6 µM (inactive) and the GI50 [50] was 37.8 µM (inactive). The GI50 [52] was > 100 µM (inactive), the GI50 [53] was 30.3 µM (inactive) and the GI50 [54] was 52.4 µM (inactive). The GI50 [55] was > 100 µM (inactive), the GI50 [56] was > 100 µM (inactive) and the GI50 [57] was 23.3 µM (inactive). The GI50 [58] was > 100 µM (inactive).
For `COc1c(OC(C)C)cc2cc(O)c(C(=O)NC3Cc4ccc(c(Cl)n4)O[C@@H]4C=C5C#C/C(=C\C#CC6OC56C4OC4CC(C)(O)C(O)C(C)O4)C(OC4CC(O)C(N(C)C)C(C)O4)COC3=O)cc2c1OC` (some centres not stated), the GI50 [2] was > 36.3 µM (inactive), the GI50 [5] was > 36.3 µM (inactive) and the GI50 [6] was 10.9 µM (inactive). The GI50 [9] was 11.5 µM (inactive), the GI50 [11] was > 36.3 µM (inactive) and the GI50 [16] was > 36.3 µM (inactive). For the same compound, the GI50 [18] was > 36.3 µM (inactive), the GI50 [24] was 2.64 µM (inactive) and the GI50 [26] was > 36.3 µM (inactive). For the same compound, the GI50 [59] was > 36.3 µM (inactive), the GI50 [28] was > 36.3 µM (inactive) and the GI50 [29] was > 36.3 µM (inactive). The GI50 [33] was > 36.3 µM (inactive), the GI50 [38] was 35.8 µM (inactive) and the GI50 [40] was > 36.3 µM (inactive). For the same compound, the GI50 [44] was > 36.3 µM (inactive), the GI50 [45] was > 36.3 µM (inactive) and the GI50 [50] was > 36.3 µM (inactive). For the same compound, the GI50 [53] was > 36.3 µM (inactive).
